Columns and labels:
[1] = Bilayer photographic element: interimage (Cg/Cb+g) and relative green sensitivity
Protocol: Bilayer photographic elements were prepared by coating the following layers on a cellulose triacetate film support (coverages are in g/m^2). Unless otherwise noted, all comparative and inventive compounds were dispersed in twice their own weight of N,N-dibutyllauramide:
Layer 1 (Antihalation Layer): black colloidal elemental silver at 0.34 and gelatin at2.41.
Layer 2 (Receiver Layer): gelatin at 2.79, CDIR-2 at 0.03, coupler M-1 (dispersed as described previously) added at 0.045, comparison material (CIEM) or IEM added at 7.2×10^-3 mmol/m^2 (this corresponds to 1.67 mmol per mole silver as AgBr or 0.96 mmol per mole of silver) dispersed in twice its own weight of N,N-dibutyllauramide and 0.81 green sensitized AgIBr tabular emulsion.
Layer 3 (Interlayer): gelatin at 0.64, ILS-1 at 0.11 and FD-1 at 0.11.
Layer 4 (Causer Layer): gelatin at 2.79, coupler Y-1 at 0.91, 0.79 blue sensitized AgIBr tabular emulsion and the DIR at 0.11 mmol/m^2.
Layer 5 (Overcoat): gelatin at 2.79 and 0.02 bis-vinylsulfonemethylether.
Samples of each element were given a stepped exposure of either green light only or blue and green light combined and processed in the KODAK FLEXICOLOR (C-41) process as described in British Journal of Photography Annual, 1988, pp196-198. Contrast of the elements was determined using the maximum slope between any two density points. In this test, the ratio of the contrast of the green only exposure to the contrast of the green of a blue and green exposure (Cg /Cb+g) is a measure of the interimage. A higher ratio means more inhibition originating from the blue and affecting the green record.
Another set of bilayer experiments were generated in a similar manner to show the effect of IEM laydown (as mmol per mol silver) and DIR variations.

[2] = Multilayer film: interimage (density change in receiver record) and relative green or blue sensitivity; conditions: for Interimage B → G / Relative Green Sensitivity: IDIR-2 in blue layers
From the text: Comparative examples are designated ML-C; inventive examples are designated ML-I.
Experimental Sample ML-C-0:
Layer 1 (Antihalation layer): black colloidal silver sol at 0.140; gelatin at 2.15; OxDS-1 at 0.108, DYE-1 at 0.049; DYE-2 at 0.017 and DYE-3 at 0.014.
Layer 2 (Slow cyan layer): a blend of three red sensitized (all with a mixture of RSD-1 and RSD-2) silver iodobromide emulsions: (i) a large sized tabular grain emulsion (1.3×0.118, 4.1 mole % I) at 0.522 (ii) a smaller tabular emulsion (0.85×0.115, 4.1 mole % I) at 0.337 and (iii) a very small tabular grain emulsion (0.55×0.115, 1.5 mole % I) at 0.559; gelatin at 2.85; cyan dye-forming coupler C-1 at 0.452; CDIR-1 at 0.043; bleach accelerator releasing coupler B-1 at 0.054 and anti-foggant 4-hydroxy-6-methyl-1,3,3a,7-tetraazaindene at 0.016.
Layer 3 (Fast cyan layer): a red-sensitized (same as above) tabular silver iodobromide emulsion (2.2×0.128, 4.1 mole % I) at 0.086; cyan coupler C-1 at 0.081; CDIR-1 at 0.034; MC-1 at 0.043; gelatin at 1.72 and anti-foggant 4-hydroxy-6-methyl-1,3,3a,7-tetraazaindene at 0.010.
Layer 4 (Interlayer): gelatin at 1.29.
Layer 5 (Slow magenta layer): a blend of two green sensitized (both with a mixture of GSD-1 and GSD-2) silver iodobromide emulsions: (i) 0.54×0.091, 4.1 mole % iodide at 0.194 and (ii) 0.52×0.085, 1.5 mole % iodide at 0.559; magenta dye forming coupler M-1 at 0.24, gelatin at 1.08 and anti-foggant 4-hydroxy-6-methyl-1,3,3a,7-tetraazaindene at 0.005.
Layer 6 (Mid magenta layer): a blend of two green sensitized (same as above) tabular silver iodobromide emulsions (i) 1.3×0.113, 4.1 mole % I at 0.430 and (ii) […], 4.1 mole % I at 0.172; magenta dye forming coupler M-1 at 0.065; MC-2 at 0.015; IDIR-5 at 0.016; gelatin at 2.12 and anti-foggant 4-hydroxy-6-methyl-1,3,3a,7-tetraazaindene at 0.003.
Layer 7 (Fast magenta layer): a green sensitized tabular silver iodobromide (1.8×0.127, 4.1 mole % I) emulsion at 0.689; gelatin at 1.61; magenta dye forming coupler M-1 at 0.043; MC-2 at 0.054 and CDIR-2 at 0.003.
Layer 8 (Yellow filter layer): gelatin at 0.86; Carey-Lea silver at 0.043 and OxDS-2 at 0.054.
Layer 9 (Slow yellow layer): an equal blend of three blue sensitized (all with YSD-1) silver iodobromide emulsions (i) 0.50×0.085, 1.5 mole % I (ii) 0.60 diameter 3-D, 3% mole I and (iii) 0.68 diameter 3-D, 3 mole % I at a total of 0.430; yellow dye forming coupler Y-2 at 0.699; yellow dye forming coupler Y-3 at 0.215; IDIR-2 at 0.086; C-1 at 0.097 and gelatin at 2.066.
Layer 10 (Fast yellow layer): two blue sensitized (with YSD-1) silver iodobromide emulsions (i) 3.1×0.137 tabular, 4.1 mole % I at 0.396 (ii) 0.95 diameter 3-D, 7.1 mole % I at 0.47; Y-2 at 0.131; Y-3 at 0.215; IDIR-2 at 0.075; C-1 at 0.011; B-1 at 0.008 and gelatin at 1.08.
Layer 11 (Protective overcoat and UV filter layer): gelatin at 1.61; silver bromide Lippman emulsion at 0.215; UV-1 and UV-2 (1:1 ratio) at a total of 0.023 and bis(vinylsulfonyl)methane hardener at 1.6% of total gelatin weight.
Surfactants, coating aids, emulsion addenda. sesquestrants, lubricants, matte and tinting dyes were added to the appropriate layers as is common in the art. The following describes the composition of each particular experimental coating based on ML-C-0:
ML-C-1: Like ML-C-0, but IDIR-6 replaces IDIR-2 in layers 9 and 10 at equimolar levels.
ML-C-2: Like ML-C-0, but IDIR-1 replaces IDIR-5 in layer 6 at 0.032.
ML-I-0: Like ML-C-0, but IEM-A added at 3×10^-4 in layer 5, 2×10^-4 in layer 6 and 2.9×10^-4 in layer 7.
ML-I-1: Like ML-C-0, but IEM-A added at 3×10^-3 in layer 5, 2×10^-3 in layer 6 and 2.9×10^-3 in layer 7.
ML-I-2: Like ML-C-0, but IEM-A added at 3×10^-2 in layer 5, 2×10^-2 in layer 6 and 2.9×10^-2 in layer 7.
ML-I-3: Like ML-C-0, but IEM-A added at 1.6×10^-3 in layers 9 and 10.
ML-I-4: Like ML-C-1, but IEM-A added at 1.6×10^-3 in layers 9 and 10.
ML-I-5: Like ML-C-2, but IEM-A added at 1.6×10^-3 in layers 9 and 10. […]

[3] = Table III BL-23: laydown 0.96 mmol per mol silver, IDIR-2 in blue
[4] = Table III BL-24: laydown 9.6 mmol per mol silver, IDIR-2 in blue
[5] = Table III BL-26: laydown 0.96 mmol per mol silver, IDIR-6 in blue
[6] = Table III BL-27: laydown 9.6 mmol per mol silver, IDIR-6 in blue
[7] = Table IV ML-I-0: 0.14 mmol IEM-A/mol silver in layers 5, 6, 7
[8] = Table IV ML-I-1: 1.4 mmol IEM-A/mol silver in layers 5, 6, 7
[9] = Table IV ML-I-2: 14 mmol IEM-A/mol silver in layers 5, 6, 7
[10] = Table V ML-I-3: IEM in blue layer, IDIR-2 in blue, IDIR-5 in green
[11] = Table V ML-I-4: IEM in blue layer, IDIR-6 in blue, IDIR-5 in green
[12] = Table V ML-I-5: IEM in blue layer, IDIR-2 in blue, IDIR-1 in green
[13] = Table V ML-I-6: IEM in blue layer, IDIR-6 in blue, IDIR-1 in green

## CCC(C)(C)c1ccc(OCCCCNC(=O)c2ccc3[nH]nnc3c2)c(C(C)(C)CC)c1 [IEM-A]
[1]; Table II, IDIR-2 in blue layer, IEM or CIEM at 7.2×10^-3 mmol/m^2
  Cg /Cb+g (interimage ratio): 1.65
[1]; [3]
  Cg /Cb+g (interimage ratio): 1.95
  Relative Green Sensitivity: 0.95
[1]; [4]
  Cg /Cb+g (interimage ratio): 1.62
  Relative Green Sensitivity: 0.82
[1]; [5]
  Cg /Cb+g (interimage ratio): 1.33
  Relative Green Sensitivity: 0.96
[1]; [6]
  Cg /Cb+g (interimage ratio): 1.59
  Relative Green Sensitivity: 0.89
[2]; [7]
  Interimage B → G: -0.041
  Relative Green Sensitivity: 0.99
[2]; [8]
  Interimage B → G: -0.100
  Relative Green Sensitivity: 0.96
[2]; [9]
  Interimage B → G: -0.097
  Relative Green Sensitivity: 0.82
[2]; [10]
  Interimage G → B: -0.154
  Relative Blue Sensitivity: 0.98
[2]; [11]
  Interimage G → B: -0.155
  Relative Blue Sensitivity: 0.97
[2]; [12]
  Interimage G → B: -0.202
  Relative Blue Sensitivity: 0.98
[2]; [13]
  Interimage G → B: -0.243
  Relative Blue Sensitivity: 0.96

— US6190848A, “Color photographic element containing ballasted triazole derivative and inhibitor releasing coupler” (priority 1999, dated 2001)
